# From ChEMBL document CHEMBL1130815, “Anti-Helicobacter pylori agents. 2. Structure activity relationships in a new series of 2-alkylguanidino-4-furylthiazoles” (1998)
# What was measured:
# [1] = system: Helicobacter pylori; assay: Compound was evaluated for antimicrobial activity against Helicobacter pylori; type: functional
# [2] = system: Neisseria meningitidis; assay: Compound was evaluated for antimicrobial activity against Neisseria meningitidis; type: functional
# [3] = system: Clostridium perfringens; assay: Compound was evaluated for antimicrobial activity against Clostridium perfringens; type: functional
# [4] = system: Campylobacter jejuni; assay: Compound was evaluated for antimicrobial activity against Campylobacter jejuni; type: functional
# [5] = system: Bacteroides fragilis; assay: Compound was evaluated for antimicrobial activity against Bacteroides fragilis; type: functional
# [6] = system: Clostridioides difficile; assay: Compound was evaluated for antimicrobial activity against Clostridium difficile; type: functional
# [7] = system: Neisseria gonorrhoeae; assay: Compound was evaluated for antimicrobial activity against Neisseria gonorrhoeae; type: functional
# [8] = species: Cavia porcellus; assay: Inhibition of histamine-stimulated chronotropic response in the isolated guinea pig right atrium at 1*10e-6 g/mL; type: functional, Cardiac atrium
# [9] = system: Rattus norvegicus; assay: Inhibition of histamine-stimulated gastric acid secretion in lumen-perfused stomach of the anaesthetized rats when administered 1 mg/kg intravenously; type: functional; settings: route intravenous
# [10] = system: Canis familiaris; assay: Compound was evaluated for the inhibition of gastrin-stimulated gastric acid secretion in conscious heidenhain pouch dogs when administered 1 mg/kg perorally; type: functional; settings: Canis lupus familiaris, Stomach, route oral
molecule,measurement,setting,value
C#CCNC(=N)Nc1nc(-c2ccc(CNC(C)=O)o2)cs1,MIC,[1],8.2 µg/mL
CCOCCCC/N=C(\N)Nc1nc(-c2ccc(CNC(C)=O)o2)cs1,MIC,[1],1.1 µg/mL
CC(=O)NCc1ccc(-c2csc(NC(=N)NC3CCCCC3)n2)o1,MIC,[1],1.06 µg/mL
CC(=O)NCc1ccc(-c2csc(NC(=N)NCC3CC3)n2)o1,MIC,[1],1.46 µg/mL
COCC/N=C(\N)Nc1nc(-c2ccc(CNC(C)=O)o2)cs1,MIC,[1],1.45 µg/mL
CC(=O)NCc1ccc(-c2csc(NC(=N)NCCN3CCCCC3)n2)o1,MIC,[1],27 µg/mL
CC(=O)NCc1ccc(-c2csc(NC(=N)NCCO)n2)o1,MIC,[1],34 µg/mL
CCOCC/N=C(\NCCOCC)Nc1nc(-c2ccc(CNC(C)=O)o2)cs1,MIC,[1],81 µg/mL
CCCCOCC/N=C(\N)Nc1nc(-c2ccc(CNC(C)=O)o2)cs1,MIC,[1],1.43 µg/mL
C=CCNC(=N)Nc1nc(-c2ccc(CNC(C)=O)o2)cs1,MIC,[1],1.45 µg/mL
CSCC/N=C(\N)Nc1nc(-c2ccc(CNC(C)=O)o2)cs1,MIC,[1],1.67 µg/mL
CC1(C)S[C@@H]2[C@H](NC(=O)[C@H](N)c3ccc(O)cc3)C(=O)N2[C@H]1C(=O)O [AMOXICILLIN],MIC,[2],0.056 µg/mL
same,MIC,[3],0.027 µg/mL
same,MIC,[4],2.2 µg/mL
same,MIC,[5],2.1 µg/mL
same,MIC,[6],0.28 µg/mL
same,MIC,[7],7.7 µg/mL
same,MIC,[1],0.021 µg/mL
CN/C(=N\CCSCc1nc[nH]c1C)NC#N [CIMETIDINE],Inhibition,[8],43%
same,inhibition in vivo at 1 mg/kg,[9],22%
same,inhibition in vivo at 1 mg/kg,[10],53%
Cc1ncc([N+](=O)[O-])n1CCO [METRONIDAZOLE],MIC,[2],> 100 µg/mL
same,MIC,[3],1.75 µg/mL
same,MIC,[4],30 µg/mL
same,MIC,[5],0.59 µg/mL
same,MIC,[6],0.2 µg/mL
same,MIC,[7],> 100 µg/mL
same,MIC,[1],5.4 µg/mL
BISMUTH SUBSALICYLATE,MIC,[2],12.5 µg/mL
same,MIC,[3],> 100 µg/mL
same,MIC,[4],7.4 µg/mL
same,MIC,[5],50 µg/mL
same,MIC,[6],50 µg/mL
same,MIC,[7],4.7 µg/mL
same,MIC,[1],8.7 µg/mL
